± gives the uncertainty stated by the source.
Test: xn = mol fraction of the nth substance listed

For `O=S(=O)([N-]S(=O)(=O)C(F)(F)F)C(F)(F)F.[Li+]` + CC#N, the viscosity (293 K, 100 kPa, x1 = 0.25) was 17.9 ± 1.3 mPa·s, the electrical conductivity (303.15 K, 100 kPa, x1 = 0.02067) was 2.79 ± 0.22 S/m and the electrical conductivity (303.15 K, 100 kPa, x1 = 0.03069) was 3.23 ± 0.26 S/m. It also gave an electrical conductivity (308.15 K, 100 kPa, x1 = 0.03069) of 3.34 ± 0.27 S/m, an electrical conductivity (308.15 K, 100 kPa, x1 = 0.04052) of 3.85 ± 0.31 S/m and an electrical conductivity (308.15 K, 100 kPa, x1 = 0.05013) of 4.25 ± 0.34 S/m. It also gave an electrical conductivity (308.15 K, 100 kPa, x1 = 0.07787) of 4.14 ± 0.33 S/m, an electrical conductivity (313.15 K, 100 kPa, x1 = 0.02067) of 3.03 ± 0.24 S/m and an electrical conductivity (313.15 K, 100 kPa, x1 = 0.07787) of 4.35 ± 0.35 S/m. The electrical conductivity (318.15 K, 100 kPa, x1 = 0.04052) was 4.16 ± 0.33 S/m, the electrical conductivity (318.15 K, 100 kPa, x1 = 0.05013) was 4.64 ± 0.37 S/m and the electrical conductivity (323.15 K, 100 kPa, x1 = 0.05957) was 4.97 ± 0.4 S/m. For the same compound, the electrical conductivity (328.15 K, 100 kPa, x1 = 0.05013) was 4.99 ± 0.4 S/m, the electrical conductivity (328.15 K, 100 kPa, x1 = 0.05957) was 5.14 ± 0.41 S/m and the electrical conductivity (333.15 K, 100 kPa, x1 = 0.05957) was 5.28 ± 0.42 S/m.

`[N-]=C=S.[NH4+]` + CC(=O)[O-].CC[n+]1ccn(C)c1 gave an electrical conductivity (298.15 K, 101 kPa, x1 = 0.3001) of 0.344 ± 0.011 S/m, a viscosity (298.15 K, 101 kPa, x1 = 0.3001) of 194.6 ± 6.6 mPa·s and an electrical conductivity (298.15 K, 101 kPa, x1 = 0.3199) of 0.353 ± 0.011 S/m. It also gave a viscosity (298.15 K, 101 kPa, x1 = 0.3199) of 195.4 ± 6.6 mPa·s, an electrical conductivity (303.15 K, 101 kPa, x1 = 0.1002) of 0.371 ± 0.012 S/m and a viscosity (303.15 K, 101 kPa, x1 = 0.1002) of 117.6 ± 3.6 mPa·s. For the same compound, the electrical conductivity (303.15 K, 101 kPa, x1 = 0.1998) was 0.386 ± 0.012 S/m, the viscosity (303.15 K, 101 kPa, x1 = 0.1998) was 139.3 ± 4.4 mPa·s and the electrical conductivity (303.15 K, 101 kPa, x1 = 0.3001) was 0.447 ± 0.014 S/m. The viscosity (303.15 K, 101 kPa, x1 = 0.3001) was 141.9 ± 4.4 mPa·s, the electrical conductivity (308.15 K, 101 kPa, x1 = 0.1998) was 0.491 ± 0.016 S/m and the viscosity (308.15 K, 101 kPa, x1 = 0.1998) was 104 ± 2.9 mPa·s. It also gave an electrical conductivity (308.15 K, 101 kPa, x1 = 0.2514) of 0.525 ± 0.017 S/m, an electrical conductivity (308.15 K, 101 kPa, x1 = 0.3413) of 0.587 ± 0.019 S/m and an electrical conductivity (313.15 K, 101 kPa, x1 = 0.3413) of 0.807 ± 0.026 S/m. It also gave a viscosity (313.15 K, 101 kPa, x1 = 0.3413) of 81.7 ± 2 mPa·s, an electrical conductivity (318.15 K, 101 kPa, x1 = 0.1998) of 0.852 ± 0.027 S/m and a viscosity (318.15 K, 101 kPa, x1 = 0.1998) of 61.5 ± 1.5 mPa·s. It also gave a viscosity (328.15 K, 101 kPa, x1 = 0.1002) of 34.29 ± 0.88 mPa·s, a viscosity (328.15 K, 101 kPa, x1 = 0.3199) of 39.29 ± 0.91 mPa·s and a viscosity (333.15 K, 101 kPa, x1 = 0.02) of 25.64 ± 0.68 mPa·s. It also gave a viscosity (333.15 K, 101 kPa, x1 = 0.1002) of 28.06 ± 0.72 mPa·s, a viscosity (333.15 K, 101 kPa, x1 = 0.1998) of 31.2 ± 0.78 mPa·s and a viscosity (333.15 K, 101 kPa, x1 = 0.3001) of 31.43 ± 0.74 mPa·s.

For `CCCCCCCCCC[n+]1ccn(C)c1.[Cl-]` + CC(C)O, the electrical conductivity (298.15 K, 101.3 kPa, frequency 5e-05 MHz, x1 = 0.01207) was 0.0497 ± 0.002 S/m, the electrical conductivity (298.15 K, 101.3 kPa, frequency 5e-05 MHz, x1 = 0.02515) was 0.0872 ± 0.0038 S/m and the electrical conductivity (298.15 K, 101.3 kPa, frequency 5e-05 MHz, x1 = 0.03936) was 0.126 ± 0.006 S/m. For the same compound, the electrical conductivity (298.15 K, 101.3 kPa, frequency 5e-05 MHz, x1 = 0.05486) was 0.17 ± 0.01 S/m, the electrical conductivity (298.15 K, 101.3 kPa, frequency 5e-05 MHz, x1 = 0.07184) was 0.218 ± 0.01 S/m and the electrical conductivity (298.15 K, 101.3 kPa, frequency 5e-05 MHz, x1 = 0.09051) was 0.266 ± 0.012 S/m. For the same compound, the electrical conductivity (298.15 K, 101.3 kPa, frequency 5e-05 MHz, x1 = 0.1111) was 0.308 ± 0.013 S/m, the electrical conductivity (298.15 K, 101.3 kPa, frequency 5e-05 MHz, x1 = 0.134) was 0.337 ± 0.014 S/m and the electrical conductivity (298.15 K, 101.3 kPa, frequency 5e-05 MHz, x1 = 0.1597) was 0.348 ± 0.014 S/m. It also gave an electrical conductivity (298.15 K, 101.3 kPa, frequency 5e-05 MHz, x1 = 0.1884) of 0.343 ± 0.014 S/m, an electrical conductivity (298.15 K, 101.3 kPa, frequency 5e-05 MHz, x1 = 0.2211) of 0.326 ± 0.013 S/m and an electrical conductivity (298.15 K, 101.3 kPa, frequency 5e-05 MHz, x1 = 0.2583) of 0.312 ± 0.012 S/m. For the same compound, the electrical conductivity (298.15 K, 101.3 kPa, frequency 5e-05 MHz, x1 = 0.3013) was 0.325 ± 0.014 S/m, the electrical conductivity (298.15 K, 101.3 kPa, frequency 5e-05 MHz, x1 = 0.3514) was 0.399 ± 0.022 S/m and the electrical conductivity (298.15 K, 101.3 kPa, frequency 5e-05 MHz, x1 = 0.4106) was 0.584 ± 0.036 S/m. It also gave an electrical conductivity (298.15 K, 101.3 kPa, frequency 5e-05 MHz, x1 = 0.4815) of 0.944 ± 0.038 S/m.

With `CS(=O)(=O)[O-].C[N+](C)(CCO)CCO` + CC(C)O the viscosity (298.15 K, 101 kPa, x1 = 0.0998) was 5.62 ± 0.34 mPa·s, the viscosity (298.15 K, 101 kPa, x1 = 0.2001) was 13.5 ± 0.8 mPa·s and the viscosity (298.15 K, 101 kPa, x1 = 0.3002) was 30.1 ± 1.8 mPa·s. The viscosity (298.15 K, 101 kPa, x1 = 0.4004) was 61 ± 4 mPa·s, the viscosity (298.15 K, 101 kPa, x1 = 0.4982) was 123 ± 8 mPa·s and the viscosity (298.15 K, 101 kPa, x1 = 0.5999) was 227 ± 17 mPa·s. The viscosity (298.15 K, 101 kPa, x1 = 0.6997) was 385 ± 34 mPa·s, the viscosity (298.15 K, 101 kPa, x1 = 0.7978) was 628 ± 62 mPa·s and the viscosity (298.15 K, 101 kPa, x1 = 0.8994) was 1025 ± 110 mPa·s. For the same compound, the viscosity (298.15 K, 101 kPa, x1 = 1) was 1495 ± 180 mPa·s, the viscosity (303.15 K, 101 kPa, x1 = 0.0998) was 4.78 ± 0.29 mPa·s and the viscosity (303.15 K, 101 kPa, x1 = 0.2001) was 11.45 ± 0.7 mPa·s. The viscosity (303.15 K, 101 kPa, x1 = 0.3002) was 24.1 ± 1.5 mPa·s, the viscosity (303.15 K, 101 kPa, x1 = 0.4004) was 47.7 ± 2.9 mPa·s and the viscosity (303.15 K, 101 kPa, x1 = 0.4982) was 86.7 ± 5.5 mPa·s. For the same compound, the viscosity (303.15 K, 101 kPa, x1 = 0.5999) was 168 ± 12 mPa·s, the viscosity (303.15 K, 101 kPa, x1 = 0.6997) was 281 ± 23 mPa·s and the viscosity (303.15 K, 101 kPa, x1 = 0.7978) was 445 ± 40 mPa·s. It also gave a viscosity (303.15 K, 101 kPa, x1 = 0.8994) of 712 ± 72 mPa·s, a viscosity (303.15 K, 101 kPa, x1 = 1) of 1021 ± 110 mPa·s and a viscosity (308.15 K, 101 kPa, x1 = 0.0998) of 4.13 ± 0.25 mPa·s. It also gave a viscosity (308.15 K, 101 kPa, x1 = 0.2001) of 9.67 ± 0.59 mPa·s, a viscosity (308.15 K, 101 kPa, x1 = 0.3002) of 19.7 ± 1.2 mPa·s and a viscosity (308.15 K, 101 kPa, x1 = 0.4004) of 38 ± 2.3 mPa·s. For the same compound, the viscosity (308.15 K, 101 kPa, x1 = 0.4982) was 67.4 ± 4.1 mPa·s, the viscosity (308.15 K, 101 kPa, x1 = 0.5999) was 128.7 ± 8.6 mPa·s and the viscosity (308.15 K, 101 kPa, x1 = 0.6997) was 210 ± 16 mPa·s. It also gave a viscosity (308.15 K, 101 kPa, x1 = 0.7978) of 324 ± 27 mPa·s, a viscosity (308.15 K, 101 kPa, x1 = 0.8994) of 507 ± 47 mPa·s and a viscosity (308.15 K, 101 kPa, x1 = 1) of 716 ± 73 mPa·s. It also gave a viscosity (313.15 K, 101 kPa, x1 = 0.0998) of 3.6 ± 0.22 mPa·s, a viscosity (313.15 K, 101 kPa, x1 = 0.2001) of 8.13 ± 0.5 mPa·s and a viscosity (313.15 K, 101 kPa, x1 = 0.3002) of 16.3 ± 1 mPa·s. The viscosity (313.15 K, 101 kPa, x1 = 0.4004) was 30.7 ± 1.9 mPa·s, the viscosity (313.15 K, 101 kPa, x1 = 0.4982) was 53.4 ± 3.2 mPa·s and the viscosity (313.15 K, 101 kPa, x1 = 0.5999) was 89.6 ± 5.7 mPa·s. It also gave a viscosity (313.15 K, 101 kPa, x1 = 0.6997) of 159 ± 11 mPa·s, a viscosity (313.15 K, 101 kPa, x1 = 0.7978) of 243 ± 19 mPa·s and a viscosity (313.15 K, 101 kPa, x1 = 0.8994) of 370 ± 32 mPa·s. It also gave a viscosity (313.15 K, 101 kPa, x1 = 1) of 513 ± 48 mPa·s, a viscosity (318.15 K, 101 kPa, x1 = 0.0998) of 3.36 ± 0.2 mPa·s and a viscosity (318.15 K, 101 kPa, x1 = 0.2001) of 6.96 ± 0.42 mPa·s. For the same compound, the viscosity (318.15 K, 101 kPa, x1 = 0.3002) was 13.7 ± 0.8 mPa·s, the viscosity (318.15 K, 101 kPa, x1 = 0.4004) was 25.2 ± 1.5 mPa·s and the viscosity (318.15 K, 101 kPa, x1 = 0.4982) was 43 ± 2.6 mPa·s. For the same compound, the viscosity (318.15 K, 101 kPa, x1 = 0.5999) was 70.7 ± 4.3 mPa·s, the viscosity (318.15 K, 101 kPa, x1 = 0.6997) was 123.6 ± 8.2 mPa·s and the viscosity (318.15 K, 101 kPa, x1 = 0.7978) was 186 ± 13 mPa·s. For the same compound, the viscosity (318.15 K, 101 kPa, x1 = 0.8994) was 278 ± 22 mPa·s, the viscosity (318.15 K, 101 kPa, x1 = 1) was 378 ± 33 mPa·s and the viscosity (323.15 K, 101 kPa, x1 = 0.0998) was 2.83 ± 0.17 mPa·s. It also gave a viscosity (323.15 K, 101 kPa, x1 = 0.2001) of 6.02 ± 0.37 mPa·s, a viscosity (323.15 K, 101 kPa, x1 = 0.3002) of 11.86 ± 0.72 mPa·s and a viscosity (323.15 K, 101 kPa, x1 = 0.4004) of 21 ± 1.3 mPa·s. For the same compound, the viscosity (323.15 K, 101 kPa, x1 = 0.4982) was 35.1 ± 2.1 mPa·s, the viscosity (323.15 K, 101 kPa, x1 = 0.5999) was 56.7 ± 3.4 mPa·s and the viscosity (323.15 K, 101 kPa, x1 = 0.6997) was 87 ± 5 mPa·s. The viscosity (323.15 K, 101 kPa, x1 = 0.7978) was 143.8 ± 9.9 mPa·s, the viscosity (323.15 K, 101 kPa, x1 = 0.8994) was 211 ± 16 mPa·s and the viscosity (323.15 K, 101 kPa, x1 = 1) was 282 ± 23 mPa·s.

From the CheMixHub ionic liquid set
